What all share (format): cell-based
Data set [1] relates to Staphylococcus aureus, Pseudomonas aeruginosa, and Streptococcus pneumoniae. Description: Antibacterial activity, overall statements over the test bacteria. The text has this:
The inventors conducted exhaustive experiments to assess the antibacterial activity of peptides from apolipoproteins and derivatives thereof. Peptides and derivatives from ApoE and ApoB were a particular focus. […] Example 1 illustrates the efficacy of the polypeptides according to the invention compared to apoE141-149 and apoB3359-3367 (i.e. non-tandem repeats) and other peptides derived from apolipoproteins.
The activity of polypeptides in accordance with the invention can be seen in Tables 5, 6, 7 and 8.
The peptides were examined for antibacterial efficacy against Staphylococcus aureus. To test the efficacy of peptides, dilutions of test peptides or PBS (for use as a control) were prepared in LB broth, and 100 μl aliquots of these placed in 96-well plates. A vial of planktonic bacterial stock was thawed in a 37° C. incubator and diluted to the level previously determined which would produce log phase growth after overnight incubation (see above). 25 μl of this bacterial dilution was then added to the test wells (some wells containing LB broth without peptide were left without any bacterial inoculation, these being used as a blank). After overnight growth, the concentration of bacteria in individual wells was assessed by measuring absorbance at 620 nm, in a microplate spectrophotometer. The average absorbance of wells for specific concentrations of peptides was calculated, and from this the percentage inhibition (relative to untreated wells) was also calculated and plotted against concentration (along with an estimate of error on that % inhibition).
The inventor constructed an expanded library of peptides derived from either apolipoprotein B or apolipoprotein E in order to further evaluate polypeptides in accordance with the invention. Further experiments were then conducted to investigate the antibacterial activity of this peptide library against the bacteria P. aeroginosa, S. aureus and S. pneumoniae. The methods used to determine the IC50 values for each peptide were as described in the Example 1.

For data set [2], the system named is Saccharomyces cerevisiae yeast cells (strain GenT01). Description: Gentronix GreenScreen GC yeast genotoxicity assay. Particulars: concentrations up to and including 100 μM, FIGS. 6A-6C. The procedure:
A liquid handling robot is used to produce a serial dilution series of each test compound in a 96-well, black microplate with an optically clear base. […] In addition, a series of genotoxic and cytotoxic standards and non-toxic controls are run to provide internal quality control. The plates are covered with a breathable membrane and incubated overnight, without shaking, at 25° C.
After incubation, the microplates are uncovered and data collected using a Tecan Ultra 384 microplate reader. This instrument provides measurements of light absorbance and fluorescence in microplates; a standard fluorescein filter set (excitation 485/25 and emission 535/25) is used. Absorbance is read at 620 nm and is proportional to cell proliferation (which is lowered by toxic analytes). Fluorescence is proportional to the activity of the DNA repair system (increased by genotoxic analytes). The yeast cultures used are a genetically modified strain that express a green fluorescent protein whenever the cells carry out DNA damage repair. Fluorescence is normalised to the absorbance signal to correct for variation in cell yield caused by any cytolytic activity of the test compounds against the yeast cells. This produces a “fluorescence per cell” measurement termed “brightness”. In addition to the Gentronix Assay yeast strain (GenT01), a control Saccharomyces cerevisiae strain (GenC01) is also used, which is identical except for its ability to produce green fluorescent protein is disabled. This strain is used to provide a control to allow correction for substances which may be either autofluorescent themselves or which induce an autofluorescence in the yeast cells. The data collected is simply transferred into a Excel template where result evaluation sheets are automatically produced. The sheets contain the processed results in both a graphical and tabulated format, with automatic assessment of the result, i.e. positive or negative, and calculation of the lowest effective concentration (LEC), for both genotoxicity and cytotoxicity. […]

A further data set relates to Pseudomonas aeruginosa. Description: Antibacterial efficacy on peptide pre-treated contact lenses. Conditions: lens pre-treated with 250 μM peptide for 2 hours. The procedure:
Referring to FIG. 2, there is shown a bar graph illustrating growth of Pseudomonas aeruginosa overnight on Johnson and Johnson Acuvue contact lenses following pre-treatment with polypeptide GIN 1p, or a control treatment. Growth was measured by examination by light microscopy, and by assessing metabolic activity of any bacteria present using MTT reduction. The data illustrates the efficacy of the antibacterial nature of the peptides according to the invention when applied to contact lenses. Antibacterial activity was assessed by measuring MTT reduction.
Lenses were placed in 24-well plates before treatment with 75 μl of 250 μM GIN-1p in PBS (pH7.4) or with 75 μl of PBS and incubated for 2 hours at […], before removal of these solutions from the lens by aspiration. A further 1 ml of PBS was then added to the wells to wash away any loosely attached peptide, before aspiration of this wash solution. […]
The plates were returned to the incubator at 37° C. overnight. […] The degree of formazan production was assessed by measuring absorbance at 540 nm for aliquots of these solutions; these values are shown in FIG. 2, and represent the average for four lenses, with the bars showing standard deviation. […]

“Also recorded” adds a separate entry of the source.

Regarding Ac-LRKLRKRLLLRKLRKRLL-NH2 [MU_10], the “Antibacterial activity, in words, bacterium not specified” value in data set [1] was “particularly effective; also recorded: much greater than that of MU43”. In addition, in data set [2], the “Genotoxic response in test yeast strain (GenT01)” value is reported as “failed to produce any genotoxic response”. For the same substance, in the data set with Pseudomonas aeruginosa (10^4 challenge organisms, FIG. 3), the “Appearance of solution containing pre-treated contact lens after overnight incubation” value was “colourless”. The “Bacterial growth on contact lens surface by light micrograph after overnight incubation” value with Pseudomonas aeruginosa (FIG. 4) was “minimal bacterial growth”.

These data come from US8524861B2, “Treatment of bacterial infections” (priority 2004, dated 2013).
